{"source": "patent US20230158015A1", "about": "“DRUG COMBINATIONS FOR INHIBITING INFLAMMATION AND SRC KINASE ACTIVATION FOLLOWING INVASIVE SURGICAL PROCEDURES” (SINTETICA S.A., priority 2020, published 2023)", "system": "p-Src / total Src", "type": "cell-based, mouse", "experimental": "On day 1, mouse KPC-105 cells were cultured until 300,000 cells per well in a 6 well plate were obtained. On day 2, the cells were treated with 0, 0.5, 1,5, 10, 15, 30, 50 and 100 µM lidocaine for 30 minutes. Plates were then collected and washed with phosphate buffered saline and stored at -80° C. Cells were subsequently lysed with 100 µl of radioimmunoprecipitation assay buffer with protease and phosphatase buffers.\nProtein estimation was done using a Bradford assay under the following conditions: • A Western Blot was stripped with 6 M guanidine hydrochloride after p-Src protein blocking to probe with total Src protein. • 10% SDS-PAGE 10 well Blocking: 5% bovine serum albumin for p-Src blot. • P-Src-Tyr416 (GeneTex GTX81151) Rb: 1:1000 in 5% bovine serum albumin, Overnight. • Total Src (Cell Signaling Technology 2108S ) Rb mAb 1:1000 overnight in 5% milk. • GAPDH (Invitrogen# AM4300) : 1:5000 in 5% milk overnight. • Wash: 4x for 5 minutes each with 1x TBST. • Developed using 50% femto for the p-Src protein and homemade ECL substrate for total Src and GAPDH protein.\nExample 4 evaluated endogenous Src and p-Src in 10 µM lidocaine treated mouse KPC-105 cells at different time points.\nExample 5 evaluated endogenous Src and p-Src in mouse KPC-105 cells treated with 10 10 µM lidocaine for different time points, and increasing doses of methylnaltrexone after one hour of incubation. Western Blot banding patterns were generated using 15 µg /lane (NP40 lysates) 10% SDS PAGE over a 6-hour duration (lidocaine) and a 1-hour duration (methylnaltrexone).\n• P-Src-Tyr416 (GeneTex # GTX81151) Rb: 1:1000 in 5% bovine serum albumin o/n at 4° C. • 10 µg /lane (NP40 lysates) 10% SDS PAGE • Total Src (CST # 2108S ) Rb mAb 1:1000 in 5% bovine serum albumin o/n at 4° C.\n• P-Src-Tyr416 (GeneTex # GTX81151) Rb: 1:1000 in 5% bovine serum albumin 3 hours at room temperature • 10 µg /lane (NP40 lysates) 10% SDS PAGE • Total Src (CST # 2108S ) Rb mAb 1:1000 in 5% bovine serum albumin 3 hours at room temperature\n• P-Src-Tyr416 (GeneTex # GTX81151) 1:2000 in 5% bovine serum albumin, o/n at 4° C. • Total Src (CST # 2108S ) 1:3000 in 5% bovine serum albumin, o/n at 4° C. • Vinculin (ProteinTech) 1:4000 in 5% milk o/n at 4° C.\n• P-Src-Tyr416 (GeneTex # GTX81151) 1:2000 in 5% bovine serum albumin, o/n at 4C • Total Src (CST # 2108S ) 1:3000 in 5% bovine serum albumin, o/n at 4C", "key": {"[1]": {"conditions": "Example 4, 10 µM lidocaine, different time points"}, "[2]": {"conditions": "Example 8, 10 µM lidocaine, 100 nM methylnaltrexone or both, different time points"}}, "note": "Where two headings read alike, the source gives them in different places."}
{"smiles": "CCN(CC)CC(=O)Nc1c(C)cccc1C", "note": "[lidocaine, 2-diethylaminoaceto-2′,6′-xylidide]", "values": [{"measurement": "dose from which the level of p-Src protein is reduced", "setting": "Example 3, 30 minutes of treatment, 0-100 µM tested", "value": "≥ 10", "unit": "µM"}, {"measurement": "Src phosphorylation (p-Src)", "setting": "[1]", "value": "attenuated Src phosphorylation after 15 minutes and up to 6 hours"}, {"measurement": "total Src", "setting": "[1]", "value": "not affected"}, {"measurement": "total Src", "setting": "Example 5, 10 µM lidocaine over 6 hours, increasing doses of methylnaltrexone, 1 hour", "value": "not affected"}, {"measurement": "Src phosphorylation (p-Src)", "setting": "Example 5, 10 µM lidocaine, different time points, inconsistent banding pattern", "value": "attenuated Src phosphorylation at 30 minutes, 1 hour, 2 hours, and 6 hours"}, {"measurement": "phosphorylation of Src", "setting": "[2]", "value": "attenuated phosphorylation of Src after 1 hour of exposure"}, {"measurement": "total Src", "setting": "[2]", "value": "decreased total Src after 1 hours of exposure"}]}
